{"source": "patent US20260176232A1", "about": "“PROBENECID COMPOUNDS FOR THE TREATMENT OF INFLAMMASOME-MEDIATED DERMATOLOGICAL CONDITIONS” (Bacainn Biotherapeutics, Ltd., priority 2022, published 2026)", "key": {"Recombinant NLRP3": {"tested_on": "Recombinant NLRP3", "assay": "Photo-affinity labelling of recombinant NLRP3, anti-PEG immunoblot (FIG. 9C)", "type": "binding", "details": "pre-incubation 20 mins, UV 365 nm, then ADS165"}, "NLRP3 [1]": {"tested_on": "NLRP3", "assay": "D4D8T immunoprecipitation of NLRP3 from photo-labelled iBMDMs (FIG. 9D)", "details": "ADS165, ADS167 1 mM; MCC 50 μM; UV 365 nm 30 mins"}, "[2]": {"molecular_target": "T1, recombinant full length NLRP1 (Homo sapiens, UniProt Q9C000)", "T1 sequence (Q9C000 1-1473)": "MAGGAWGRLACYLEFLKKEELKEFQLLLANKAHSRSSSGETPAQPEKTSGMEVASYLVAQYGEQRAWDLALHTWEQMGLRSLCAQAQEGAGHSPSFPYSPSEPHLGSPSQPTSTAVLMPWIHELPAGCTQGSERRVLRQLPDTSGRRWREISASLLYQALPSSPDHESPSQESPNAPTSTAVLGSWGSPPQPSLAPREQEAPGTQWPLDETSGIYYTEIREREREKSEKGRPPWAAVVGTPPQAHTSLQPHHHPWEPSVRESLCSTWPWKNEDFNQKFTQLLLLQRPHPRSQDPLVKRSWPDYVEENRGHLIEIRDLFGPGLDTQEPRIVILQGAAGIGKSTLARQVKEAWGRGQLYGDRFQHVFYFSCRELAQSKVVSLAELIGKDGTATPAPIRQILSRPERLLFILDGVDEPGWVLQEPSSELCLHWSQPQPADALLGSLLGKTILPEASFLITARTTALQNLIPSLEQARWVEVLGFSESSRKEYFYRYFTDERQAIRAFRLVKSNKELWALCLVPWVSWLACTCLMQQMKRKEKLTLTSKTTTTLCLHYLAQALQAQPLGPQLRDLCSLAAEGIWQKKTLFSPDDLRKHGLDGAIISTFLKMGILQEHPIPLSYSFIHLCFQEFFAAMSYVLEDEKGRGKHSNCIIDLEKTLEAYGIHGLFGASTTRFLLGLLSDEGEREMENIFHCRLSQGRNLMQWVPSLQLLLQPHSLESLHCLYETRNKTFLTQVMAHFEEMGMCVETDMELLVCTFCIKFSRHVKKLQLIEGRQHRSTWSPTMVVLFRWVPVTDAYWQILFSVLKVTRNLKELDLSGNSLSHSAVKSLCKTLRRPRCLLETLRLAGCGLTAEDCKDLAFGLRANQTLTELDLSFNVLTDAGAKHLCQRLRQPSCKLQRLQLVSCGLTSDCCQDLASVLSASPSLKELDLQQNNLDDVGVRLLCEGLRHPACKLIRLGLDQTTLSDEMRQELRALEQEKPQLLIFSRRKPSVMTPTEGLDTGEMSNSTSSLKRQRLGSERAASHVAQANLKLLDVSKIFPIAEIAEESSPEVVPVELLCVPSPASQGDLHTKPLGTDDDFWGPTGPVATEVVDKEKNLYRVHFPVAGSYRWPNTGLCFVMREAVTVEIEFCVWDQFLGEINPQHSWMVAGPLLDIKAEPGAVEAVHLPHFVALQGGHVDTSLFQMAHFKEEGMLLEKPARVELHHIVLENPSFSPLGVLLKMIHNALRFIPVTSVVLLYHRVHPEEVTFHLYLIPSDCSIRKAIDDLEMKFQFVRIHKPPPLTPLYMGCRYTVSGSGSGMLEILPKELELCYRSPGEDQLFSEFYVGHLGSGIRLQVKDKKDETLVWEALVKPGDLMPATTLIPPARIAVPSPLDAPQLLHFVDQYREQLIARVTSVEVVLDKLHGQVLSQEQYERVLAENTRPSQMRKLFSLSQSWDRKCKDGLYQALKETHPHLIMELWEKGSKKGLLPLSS", "assay": "Photo-affinity labelling of recombinant full length NLRP1, anti-PEG immunoblot (FIG. 9E)", "type": "binding", "details": "pre-incubation, UV 365 nm, then ADS165", "experimental": "FIGS. 9A-9F are a series of panels showing ADS032 (also referred to herein as “BT032”) directly binds to NLRP1 and NLRP3. FIGS. 9A and 9B are chemical structures of ADS165 and ADS167. […] ADS165 was then co-incubated for 20 mins and UV treated for 20 mins to cross-link associated compound and protein. Protein was separated by SDS-PAGE and immunoblotted (IB) with anti-PEG to visualize ADS165-linked protein. FIG. 9D: iBMDM cells stably expressing NLRP3-Flag were treated for 30 mins with ADS165, ADS167 (1 mM) or MCC955 (50 μM) for 30 mins, and irradiated with UV 365 nm for 30 mins. Cells were lysed with buffer and immunoprecipitation (IP) of NLRP3 performed with α-NLRP3 (D4D8T) antibody. Levels of precipitated (IP) and total cellular lysate (Input) NLRP3 were determined by immunoblotting with α-NLRP3 (Cryo-2) antibody. FIG. 9F: NLRP1-Flag was expressed in HEK293T cells (1×10^6) for 20 h and treated with ADS165 (1 mM) for 30 mins where indicated, followed by UV 365 nm for a further 30 mins. Cells were lysed with lysis buffer and […] immunoprecipitated with α-Flag (M2) antibody. Proteins were separated by SDS-PAGE and ADS165-linked NLRP1 identified by immunoblot with a-PEG, while total precipitated NLRP1 visualized by immunoblot with α-NLRP1 and total cell lysate by α-Flag. Data shown is representative of three independent experiments.\nNext, it was determined whether ADSO32 could interact with NLRP1. […] To further investigate this interaction, ectopically expressed Flag-tagged NLRP1 was immunoprecipitated from cell lysates pretreated or not with ADS165 and exposed to UV light."}, "NLRP3 [3]": {"molecular_target": "T2, NLRP3 (Mus musculus, UniProt Q8R4B8)", "T2 construct": "endogenous in cells; host or cells: iBMDMs", "T2 sequence (Q8R4B8 whole entry)": "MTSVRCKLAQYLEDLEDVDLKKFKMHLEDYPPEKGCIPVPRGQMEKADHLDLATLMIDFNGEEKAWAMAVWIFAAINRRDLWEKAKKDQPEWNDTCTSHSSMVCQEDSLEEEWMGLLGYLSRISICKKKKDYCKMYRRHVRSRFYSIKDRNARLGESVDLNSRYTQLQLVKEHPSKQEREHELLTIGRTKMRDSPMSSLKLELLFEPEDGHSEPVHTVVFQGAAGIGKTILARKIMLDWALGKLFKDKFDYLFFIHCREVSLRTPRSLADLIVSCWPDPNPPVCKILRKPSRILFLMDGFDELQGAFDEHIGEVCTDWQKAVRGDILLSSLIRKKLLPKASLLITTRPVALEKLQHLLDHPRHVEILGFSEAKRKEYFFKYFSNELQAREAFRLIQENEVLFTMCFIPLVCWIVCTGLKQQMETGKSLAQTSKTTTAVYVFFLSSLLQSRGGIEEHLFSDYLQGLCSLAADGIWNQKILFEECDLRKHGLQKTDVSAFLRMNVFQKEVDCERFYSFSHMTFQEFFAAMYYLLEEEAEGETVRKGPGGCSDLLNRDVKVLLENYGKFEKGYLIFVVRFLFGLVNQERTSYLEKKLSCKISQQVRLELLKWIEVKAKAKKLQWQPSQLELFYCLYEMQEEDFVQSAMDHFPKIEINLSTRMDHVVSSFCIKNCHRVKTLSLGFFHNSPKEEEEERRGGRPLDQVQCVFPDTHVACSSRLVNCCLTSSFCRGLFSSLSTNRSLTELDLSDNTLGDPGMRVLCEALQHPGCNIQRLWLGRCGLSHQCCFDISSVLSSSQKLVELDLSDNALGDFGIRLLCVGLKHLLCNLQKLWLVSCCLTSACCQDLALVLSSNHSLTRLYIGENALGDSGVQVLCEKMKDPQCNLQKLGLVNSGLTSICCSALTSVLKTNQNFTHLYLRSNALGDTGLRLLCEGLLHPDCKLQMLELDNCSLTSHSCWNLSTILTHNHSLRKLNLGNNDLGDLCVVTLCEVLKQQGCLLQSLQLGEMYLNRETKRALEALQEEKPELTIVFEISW", "assay": "NLRP3-induced IL-1β secretion from iBMDMs, photo-affinity probes", "type": "cell-based", "details": "data not shown", "excerpt": "To verify interaction with target proteins, a photo-affinity labeling strategy (MacKinnon+Taunton, 2009) was developed where two modified versions of ADSO32 (1) containing an alkyne photoactivatable moiety linked with a PEG550 moiety to allow visualization (FIG. 9A) termed ADS165; and (2) ADSO32 linked with a diazirine photo-affinity label, (FIG. 9B) termed ADS167 were synthesized. Both photo-affinity labels covalently cross-link to molecular targets when exposed to ultraviolet light (365 nm)."}, "NLRP1 inflammasome [4]": {"tested_on": "NLRP1 inflammasome", "assay": "IL-1β secretion in macrophages challenged with L18-MDP (FIG. 7)", "type": "cell-based, human", "details": "20, 100, 350 μM, L18-MDP 100 μg/mL 16 hours, secreted IL-1β", "excerpt": "(§1) In vitro stimulation of human macrophages."}, "NLRP3 inflammasome": {"molecular_target": "NLRP3 inflammasome (Mus musculus, UniProt Q8R4B8)", "sequence (Q8R4B8 whole entry)": "as above", "assay": "IL-1β secretion (ELISA) in LPS-primed iBMDMs stimulated with silica or nigericin", "type": "cell-based, murine (C57BL/6)", "set-up": "endogenous in cells; host or cells: immortalized wild-type C57BL/6 bone-marrow derived macrophages (iBMDMs), LPS-primed", "details": "compared with probenecid in DMSO or PBS", "experimental": "In vitro stimulation of murine macrophages. Immortalized wild-type C57BL/6 bone-marrow derived macrophages (iBMDMs) were grown in DMEM supplemented with 10% heat inactivated FBS and 2 mM glutamine. iBMDMs were seeded in 96-well plates 24 hours prior incubation with lipopolysaccharide (LPS; 100 ng/mL) for 3 hours. Cells were then incubated with a control probenecid compound (probenecid dissolved in DMSO (Prob/D), probenecid dissolved in PBS (Prob/P)) or one of the probenecid analogs of the present technology (BT032, BT132, BT133, BT134, BT135, BT136, BT137, BT138, BT139, or BT140) at concentrations of 300 μM, 150 μM, 30 μM, or 3 μM 1 hour prior to stimulation with NLRP3 inflammasome activators, silica ([…]) or nigericin (6 μM). After an additional 6 hours, cell supernatants were collected and levels of IL-1β were quantified by ELISA. These experiments were run in triplicate three times."}, "NLRP1 inflammasome [5]": {"tested_on": "NLRP1 inflammasome", "assay": "IL-1β secretion in macrophages challenged with L18-MDP (FIG. 4C)", "type": "cell-based, human", "details": "BT032 20, 100 μM; MCC950 5 μM; L18-MDP 100 μg/ml 16 h", "excerpt": "as §1"}}, "data": [{"smiles": "CCCCN(CCC)S(=O)(=O)c1ccc(-c2ccc(CCCC(=O)NCc3ccc(C4(C(F)(F)F)N=N4)cc3)cc2)cc1", "note": "[ADS167]", "values": [{"measurement": "competition with ADS165 labelling of NLRP3", "setting": "Recombinant NLRP3", "result": "inhibited the ability of ADS165 to label NLPR3"}, {"measurement": "D4D8T-mediated NLRP3 immunoprecipitation", "setting": "NLRP3 [1]", "result": "reduced the efficacy of D4D8T-mediated NLRP3 immunoprecipitation"}, {"measurement": "competition with ADS165 interaction with NLRP1", "setting": "[2]", "result": "could ablate interaction"}, {"measurement": "NLRP3-induced IL-1β secretion from iBMDMs", "setting": "NLRP3 [3]", "result": "still able to inhibit NLRP3-induced IL-1β secretion"}, {"measurement": "efficacy relative to ADS032 (NLRP3-induced IL-1β secretion)", "setting": "NLRP3 [3]", "result": "reduced efficacy as compared to ADS032"}]}, {"smiles": "CCCN(CCC)S(=O)(=O)c1ccc(N2CCC(CCCC(=O)O)CC2)cc1", "note": "[BT135, 4-(1-(4-(N,N-dipropylsulfamoyl)-phenyl)piperidin-4-yl)butanoic acid]", "values": [{"measurement": "NLRP1 (L18-MDP)-induced inflammasome activation", "setting": "NLRP1 inflammasome [4]", "result": "dose-dependently inhibited"}]}, {"smiles": "CCCN(CCC)S(=O)(=O)c1ccc(-c2nc(CCCC(=O)O)cs2)cc1", "note": "[BT136, 4-(2-(4-(N,N-dipropylsulfamoyl)phenyl)thiazol-4-yl)butanoic acid]", "values": [{"measurement": "potency versus control probenecid compounds (IL-1β secretion)", "setting": "NLRP3 inflammasome", "result": "more potent than the control probenecid compounds"}, {"measurement": "NLRP1 (L18-MDP)-induced inflammasome activation", "setting": "NLRP1 inflammasome [4]", "result": "dose-dependently inhibited"}]}, {"smiles": "CC(C)(O)c1coc(S(=O)(=O)NC(=O)Nc2c3c(cc4c2CCC4)CCC3)c1", "note": "[MCC950, reference compound]", "values": [{"measurement": "competition with ADS165 interaction with NLRP1", "setting": "[2]", "result": "no effect"}, {"measurement": "NLRP1 (L18-MDP)-induced inflammasome activation", "setting": "NLRP1 inflammasome [5]", "result": "no impact"}]}]}
